A word on the EC50: it is the concentration at which the effect is half-maximal.

Experiment [1] deals with SCoV2^WK521A191T. Details: species or system SARS-CoV-2. The following applies: read-out: EC50 from cell-based assay.
The next experiment relates to rgSCoV2E166V. Type of experiment: cell-based, SARS-CoV-2.
The subject of experiment [2] is SCoV2^WK521WT + SCoV2^WK521A191T. The experiment is classed as cell-based, SARS-CoV-2.
The test system of another experiment is rgSCoV2L50F/E166V. The experiment is classed as cell-based, SARS-CoV-2.
Another experiment relates to rgSCoV2WT. As to the kind of experiment: microbe, parasite or virus in culture. The experiment is classed as cell-based. The settings on record: Severe acute respiratory syndrome coronavirus 2, VeroE6/TMPRSS2, read-out: EC50±SD.
The subject of experiment [3] is SCoV2^WK521A191T. More on the design: species or system SARS-CoV-2. The following applies: read-out: EC50 from cell-based assay. The source holds these as a separate data set.
Experiment [4] concerns the target T1, M^proE166V (Severe acute respiratory syndrome coronavirus 2, UniProt P0DTD1, E3429V). The experiment is classed as binding, SARS-CoV-2.
Experiment [5] has as its system SCoV2^WK521WT + SCoV2^WK521E166V. The experiment is classed as cell-based, SARS-CoV-2.
Experiment [6] deals with T1, M^proE166V. Type of experiment: biochemical, SARS-CoV-2.
Another experiment has as its system SCoV2^WK521E166V. Type of experiment: cell-based, SARS-CoV-2.

Like-named read-outs stand apart in the source and are kept apart here.

In the case of `COc1cccc2[nH]c(C(=O)N[C@@H](CC(C)C)C(=O)N[C@@H](C[C@@H]3CCNC3=O)C(=O)c3nc4ccccc4s3)cc12` [5h], the concentration giving a half-maximal response (EC50) with SCoV2^WK521A191T [1] was greater than 100 µM; in the experiment on rgSCoV2E166V it was 13.5 ± 0.15 µM; with rgSCoV2L50F/E166V it was 13.4 ± 0.48 µM; in the experiment with rgSCoV2WT, 13.5 µM; in the experiment with SCoV2^WK521A191T [3], 35 ± 0.08 µM. For the same molecule, the “Pattern of replicability in CSRA” value in experiment [2] is recorded as “SCoV2^WK521A191T predominated SCoV2^WK521 throughout all the concentrations tested”.
Turning to `CC(C)(C)[C@H](NC(=O)C(F)(F)F)C(=O)N1C[C@H]2[C@@H]([C@H]1C(=O)N[C@@H](C[C@@H]1CCNC1=O)C(=O)c1nc3c(F)cccc3s1)C2(C)C` [TKB245], at M^proE166V [4], the “Complex formation with MproE166V in crystallization” value is “TKB245 binds to M^proE166V”. Moreover, in [5], the “SCoV2^WK521E166V population” value was found to be 100%. The “SCoV2^WK521WT population” value in experiment [5] is 100%. For the same molecule, the “Factor of greater binding affinity to MproE166V than nirmatrelvir” value at M^proE166V [6] was determined as 6.8. Further, the EC50 with rgSCoV2E166V worked out at 6.6 µM; in the experiment on rgSCoV2L50F/E166V, 11.4 µM; in the experiment with rgSCoV2WT it was 0.78 µM. Also, the “Difference in the EC50 values of NIR and TKB245” value in the experiment with SCoV2^WK521E166V worked out at 207 fold.
As to `CC(C)(C)[C@H](NC(=O)C(F)(F)F)C(=O)N1C[C@H]2[C@@H]([C@H]1C(=O)N[C@H](C#N)C[C@@H]1CCNC1=O)C2(C)C` [nirmatrelvir, reference compound], in the experiment with rgSCoV2WT, the EC50 worked out at 4.4 µM.
